Measurements published in ChEMBL document CHEMBL2057064, “Activation of human RNase L by 2'- and 5'-O-methylphosphonate-modified oligoadenylates” (Bioorg Med Chem Lett, 2012).
Activity calls are given as the source filed them. The calls are words filed in the database; no cut-off is given here.

Legend:
[1] = biological target: T1, 2-5A-dependent ribonuclease (Homo sapiens) (UniProt Q05823); test: (§1) Activation of human RNase L expressed in Escherichia coli BL21 (DE3) cells assessed as RNA cleavage using Cy5-rC11-UU-C7-BHQ2 as substrate by FRET assay
T1 sequence (whole entry): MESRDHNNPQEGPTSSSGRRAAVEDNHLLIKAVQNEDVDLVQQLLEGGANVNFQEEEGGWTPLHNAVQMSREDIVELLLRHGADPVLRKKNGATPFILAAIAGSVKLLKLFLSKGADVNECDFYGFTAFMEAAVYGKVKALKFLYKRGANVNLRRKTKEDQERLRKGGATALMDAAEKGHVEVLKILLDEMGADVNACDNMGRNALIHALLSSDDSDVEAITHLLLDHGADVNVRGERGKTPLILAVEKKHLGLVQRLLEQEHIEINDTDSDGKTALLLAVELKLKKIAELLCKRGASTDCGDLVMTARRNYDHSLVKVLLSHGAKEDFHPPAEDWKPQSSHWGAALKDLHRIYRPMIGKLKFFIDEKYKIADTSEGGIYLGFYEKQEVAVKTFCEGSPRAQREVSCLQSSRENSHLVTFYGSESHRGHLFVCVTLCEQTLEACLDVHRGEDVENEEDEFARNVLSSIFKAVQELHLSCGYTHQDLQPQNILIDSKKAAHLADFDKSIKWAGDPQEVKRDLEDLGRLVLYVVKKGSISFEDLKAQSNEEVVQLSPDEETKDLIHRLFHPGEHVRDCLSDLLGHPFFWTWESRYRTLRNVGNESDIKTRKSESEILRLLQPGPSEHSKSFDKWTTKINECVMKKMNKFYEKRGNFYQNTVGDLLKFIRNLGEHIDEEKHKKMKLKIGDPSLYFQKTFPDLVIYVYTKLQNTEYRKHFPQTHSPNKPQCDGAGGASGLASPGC

[2] = biological target: T2, 2-5A-dependent ribonuclease (Homo sapiens, UniProt Q05823); test: as §1
T2 sequence (Q05823 whole entry): T1 sequence (whole entry)

| Structure (SMILES) | Activity [1] | EC50 [2] |
| --- | --- | --- |
| Nc1ncnc2c1ncn2[C@@H]1O[C@H](COP(=O)(O)O[C@@H]2[C@H](O)[C@@H](COCP(=O)(O)O[C@@H]3[C@H](O)[C@@H](COP(=O)(O)O[C@@H]4[C@H](O)[C@@H](COP(=O)(O)O)O[C@H]4n4cnc5c(N)ncnc54)O[C@H]3n3cnc4c(N)ncnc43)O[C@H]2n2cnc3c(N)ncnc32)[C@@H](O)[C@H]1O | inactive | 300 nM |
| Nc1ncnc2c1ncn2[C@@H]1O[C@H](COCP(=O)(O)O[C@@H]2[C@H](O)[C@@H](COP(=O)(O)O[C@@H]3[C@H](O)[C@@H](COP(=O)(O)O[C@@H]4[C@H](O)[C@@H](COP(=O)(O)O)O[C@H]4n4cnc5c(N)ncnc54)O[C@H]3n3cnc4c(N)ncnc43)O[C@H]2n2cnc3c(N)ncnc32)[C@@H](O)[C@@H]1O | Active | 6.5 nM |
| Nc1ncnc2c1ncn2[C@@H]1O[C@H](COP(=O)(O)O[C@@H]2[C@H](O)[C@@H](COP(=O)(O)O[C@@H]3[C@H](O)[C@@H](COP(=O)(O)O[C@H]4[C@H](O)[C@@H](COCP(=O)(O)O)O[C@H]4n4cnc5c(N)ncnc54)O[C@H]3n3cnc4c(N)ncnc43)O[C@H]2n2cnc3c(N)ncnc32)[C@@H](O)[C@H]1O | Active | 1000 nM |
| Nc1ncnc2c1ncn2[C@@H]1O[C@H](COP(=O)(O)CO[C@@H]2[C@H](O)[C@@H](COP(=O)(O)O[C@@H]3[C@H](O)[C@@H](COP(=O)(O)O[C@@H]4[C@H](O)[C@@H](COP(=O)(O)O)O[C@H]4n4cnc5c(N)ncnc54)O[C@H]3n3cnc4c(N)ncnc43)O[C@H]2n2cnc3c(N)ncnc32)[C@@H](O)[C@H]1O | Active | 200 nM |
| Nc1ncnc2c1ncn2[C@@H]1O[C@H](COP(=O)(O)O[C@@H]2[C@H](O)[C@@H](COP(=O)(O)O[C@@H]3[C@H](O)[C@@H](COP(=O)(O)CO[C@@H]4[C@@H](O)[C@@H](COP(=O)(O)O)O[C@H]4n4cnc5c(N)ncnc54)O[C@H]3n3cnc4c(N)ncnc43)O[C@H]2n2cnc3c(N)ncnc32)[C@@H](O)[C@H]1O | Active | 300 nM |
| Nc1ncnc2c1ncn2[C@@H]1O[C@H](COP(=O)(O)O[C@@H]2[C@H](O)[C@@H](COP(=O)(O)O[C@@H]3[C@H](O)[C@@H](COP(=O)(O)O[C@@H]4[C@@H](O)[C@@H](COCP(=O)(O)O)O[C@H]4n4cnc5c(N)ncnc54)O[C@H]3n3cnc4c(N)ncnc43)O[C@H]2n2cnc3c(N)ncnc32)[C@@H](O)[C@H]1O | Active | 300 nM |

Results, then the compound that gave them:

| Activity [1] | EC50 [2] | Structure (SMILES) |
| --- | --- | --- |
| inactive | > 1000 nM | Nc1ncnc2c1ncn2[C@@H]1O[C@H](COP(=O)(O)O[C@@H]2[C@H](O)[C@@H](COP(=O)(O)O[C@@H]3[C@H](O)[C@@H](COCP(=O)(O)O[C@@H]4[C@H](O)[C@@H](COP(=O)(O)O)O[C@H]4n4cnc5c(N)ncnc54)O[C@H]3n3cnc4c(N)ncnc43)O[C@H]2n2cnc3c(N)ncnc32)[C@@H](O)[C@H]1O |
| Active | 4.2 nM | Nc1ncnc2c1ncn2[C@@H]1O[C@H](COCP(=O)(O)O[C@@H]2[C@H](O)[C@@H](COP(=O)(O)O[C@@H]3[C@H](O)[C@@H](COP(=O)(O)O[C@@H]4[C@H](O)[C@@H](COP(=O)(O)O)O[C@H]4n4cnc5c(N)ncnc54)O[C@H]3n3cnc4c(N)ncnc43)O[C@H]2n2cnc3c(N)ncnc32)[C@H](O)[C@H]1O |
| Active | 1000 nM | Nc1ncnc2c1ncn2[C@@H]1O[C@H](COP(=O)(O)CO[C@H]2[C@H](O)[C@@H](COP(=O)(O)O[C@@H]3[C@H](O)[C@@H](COP(=O)(O)O[C@@H]4[C@H](O)[C@@H](COP(=O)(O)O)O[C@H]4n4cnc5c(N)ncnc54)O[C@H]3n3cnc4c(N)ncnc43)O[C@H]2n2cnc3c(N)ncnc32)[C@@H](O)[C@H]1O |
